Reference: US10117950B2, “Compounds and compositions for the treatment of ocular disorders” (Graybug Vision, Inc., priority 2015, dated 2018)
Where two headings read alike, the source gives them in different places.

Legend:
[1] = molecular target: T1, bovine erythrocyte carbonic anhydrase II (Bos taurus, UniProt P00921); experiment: Carbonic anhydrase II inhibition, colorimetric 4-nitrophenyl acetate hydrolysis; format: biochemical; conditions: n = 2
T1 construct: purified bovine erythrocyte carbonic anhydrase II; from tissue; host or cells: bovine erythrocytes
Protocol: The catalytic activity of carbonic anhydrase II was assessed by a colorimetric method, in which 4-nitrophenyl acetate is hydrolyzed to acetate and nitrophenolate. The nitrophenolate ionizes to generate a bright yellow anion that is readily detected by measuring its absorbance at 350-400 nm. […] Acetazolamide was added as a positive control and 100% DMSO was added as a negative control. The reaction was initiated with the addition of 20 μL of 4-nitrophenyl acetate (0.7 mM in ethanol).

[2] = Determination of drug solubility; format: physicochemical; conditions: for solubility: thermodynamic from solid
Protocol: For each test, approximately 5-10 mg was transferred to a 10 mL glass vial. Aqueous or organic solvent was added to each vial to achieve an overall concentration of 50 mg/mL. After vortexing aggressively for 2-3 minutes and sonicating in a bath sonicator for 5 minutes, undissolved drug was spun down at 1200 rpm for 5 minutes to generate a pellet. The supernatant was collected and filtered through a 0.2 μm nylon syringe filter into HPLC vials for drug content analysis. Drug concentration was determined by comparing against a standard calibration curve.

[3] = DCM, organic solvent or mixture, read-out: Solubility DCM
[4] = DMSO, organic solvent or mixture, read-out: Solubility DMSO
[5] = water / aqueous solvent, read-out: Solubility Water

T1 sequence (P00921 whole entry): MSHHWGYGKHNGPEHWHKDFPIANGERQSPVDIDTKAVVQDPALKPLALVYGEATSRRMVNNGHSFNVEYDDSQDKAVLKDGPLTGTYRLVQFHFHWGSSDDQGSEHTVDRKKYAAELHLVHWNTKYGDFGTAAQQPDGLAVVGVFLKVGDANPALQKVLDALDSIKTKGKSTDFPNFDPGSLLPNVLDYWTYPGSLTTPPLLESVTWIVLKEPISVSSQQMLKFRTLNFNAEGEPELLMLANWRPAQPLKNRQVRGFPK

Structure (SMILES): CCN[C@H]1C[C@H](C)S(=O)(=O)c2sc(S(=O)(=O)NC(=O)[C@H](C)OC(=O)[C@H](C)OC(=O)[C@H](C)OC(C)=O)cc21 [26-1]
- IC50 [1]: 16.4 ± 7.25 nM
- solubility [2, 3]: > 50 mg/mL
- solubility [2, 4]: > 50 mg/mL
- solubility [2, 5]: > 50 mg/mL

Structure (SMILES): CCN[C@H]1C[C@H](C)S(=O)(=O)c2sc(S(=O)(=O)NC(=O)[C@H](C)OC(=O)[C@H](C)OC(=O)[C@H](C)OC(=O)[C@H](C)OC(C)=O)cc21 [27-1]
- IC50 [1]: 44.1 ± 14.8 nM
- solubility [2, 3]: > 50 mg/mL
- solubility [2, 4]: > 50 mg/mL
- solubility [2, 5]: < 1 mg/mL

Structure (SMILES): CCN[C@H]1C[C@H](C)S(=O)(=O)c2sc(S(=O)(=O)NC(=O)[C@H](C)OC(=O)[C@H](C)OC(=O)[C@H](C)OC(=O)[C@H](C)OC(=O)[C@H](C)OC(C)=O)cc21 [28-1, dorzolamide-acetyl PLA (n=5)]
- IC50 [1]: 89.2 ± 18.1 nM
- solubility [2, 3]: > 50 mg/mL
- solubility [2, 4]: > 50 mg/mL
- solubility [2, 5]: < 1 mg/mL

Structure (SMILES): CCN[C@H]1C[C@H](C)S(=O)(=O)c2sc(S(=O)(=O)NC(=O)[C@H](C)OC(=O)[C@H](C)OC(=O)[C@H](C)OC(=O)[C@H](C)OC(=O)[C@H](C)OC(=O)[C@H](C)OC(C)=O)cc21 [29-1, dorzolamide-acetyl PLA (n=6)]
- solubility [2, 3]: > 50 mg/mL
- solubility [2, 4]: > 50 mg/mL
- solubility [2, 5]: < 1 mg/mL

Structure (SMILES): CCN(CC)CCNC(=O)c1c(C)[nH]c(/C=C2\C(=O)Nc3ccc(N)cc32)c1C [47-1, 5-[5-amino-2-oxo-1,2-dihydro-indol-(3Z)-ylidenemethyl]-2,4-dimethyl-1H-pyrrole-3-carboxylic acid (2-diethylamino-ethyl)-amide]
- solubility [2, 4]: > 50 mg/mL
- solubility [2, 5]: < 1 mg/mL

Structure (SMILES): C=C(CC)C(=O)c1ccc(OCC(=O)O)c(Cl)c1Cl [54-1, ethacrynic acid]
- Solubility DMSO ([2]; DMSO): >50 mg/mL
- Solubility Water ([2]; water / aqueous solvent): <1.0 mg/mL

Structure (SMILES): CCN(CC)CCNC(=O)c1c(C)[nH]c(/C=C2\C(=O)Nc3ccc(OC(=O)CCCCC(=O)N(CC)[C@H]4CN(CCCOC)S(=O)(=O)c5sc(S(=O)(=O)NC(=O)[C@H](C)OC(=O)[C@H](C)OC(=O)[C@H](C)O)cc54)cc32)c1C [61-2, (3Z)-3-[(4-{[2-(diethylamino)ethyl]carbamoyl}-3,5-dimethyl-1H-pyrrol-2-yl)methylidene]-2-oxo-2,3-dihydro-1H-indol-5-yl 5-{ethyl[(4R)-6-{[(2S)-2-{[(2S)-2-{[(2S)-2-hydroxypropanoyl]oxy}propanoyl]oxy}propanamido]sulfonyl}-2-(3-methoxypropyl)-1,1-dioxo-2H,3H,4H-1λ^6-thieno[3,2-e][1,2]thiazin-4-yl]carbamoyl}pentanoate]
- solubility [2, 4]: > 50 mg/mL
- solubility [2, 5]: < 1 mg/mL

Structure (SMILES): CCN[C@H]1CN(CCCOC)S(=O)(=O)c2sc(S(=O)(=O)NC(=O)[C@H](C)OC(=O)[C@H](C)OC(=O)[C@H](C)OC(=O)CCCCC(=O)Oc3ccc4c(c3)/C(=C/c3[nH]c(C)c(C(=O)NCCN(CC)CC)c3C)C(=O)N4)cc21 [61-3, (3Z)-3-[(4-{[2-(diethylamino)ethyl]carbamoyl}-3,5-dimethyl-1H-pyrrol-2-yl)methylidene]-2-oxo-2,3-dihydro-1H-indol-5-yl 1-(2S)-1-[(2S)-1-[(1S)-1-({[(4R)-4-(ethylamino)-2-(3-methoxypropyl)-1,1-dioxo-2H,3H,4H-1λ^6-thieno[3,2-e][1,2]thiazin-6-yl]sulfonyl}carbamoyl)ethoxy]-1-oxopropan-2-yl]oxy}-1-oxopropan-2-yl hexanedioate]
- Solubility DMSO ([2]; DMSO): >50 mg/mL
- Solubility Water ([2]; water / aqueous solvent): <1.0 mg/mL

Structure (SMILES): CCN[C@H]1CN(CCCOC)S(=O)(=O)c2sc(S(N)(=O)=O)cc21 [Brinzolamide, reference compound]
- solubility [2, 3]: < 7.5 mg/mL
- Solubility DMSO ([2]; DMSO): >50 mg/mL
- solubility [2, 4]: > 50 mg/mL
- solubility [2, 5]: < 1 mg/mL
- Solubility Water ([2]; water / aqueous solvent): <1.0 mg/mL

Structure (SMILES): CCN[C@H]1C[C@H](C)S(=O)(=O)c2sc(S(N)(=O)=O)cc21 [Dorzolamide, reference compound]
- solubility [2, 3]: < 1 mg/mL
- solubility [2, 4]: < 1 mg/mL
- organic solubility ([2]; organic solvent): low organic solubility
- solubility [2, 5]: > 50 mg/mL
- Solubility Water ([2]; water / aqueous solvent): >50 mg/mL
